Laboratory results published in ChEMBL document CHEMBL1131530, “Synthesis and biological activities of tricyclic conformationally restricted tetrahydropyrido annulated furo[2,3-d]pyrimidines as inhibitors of dihydrofolate reductases” (J Med Chem, 1998).

T1: Dihydrofolate reductase (Rattus norvegicus, UniProt Q920D2)
T1 sequence (Q920D2 whole entry): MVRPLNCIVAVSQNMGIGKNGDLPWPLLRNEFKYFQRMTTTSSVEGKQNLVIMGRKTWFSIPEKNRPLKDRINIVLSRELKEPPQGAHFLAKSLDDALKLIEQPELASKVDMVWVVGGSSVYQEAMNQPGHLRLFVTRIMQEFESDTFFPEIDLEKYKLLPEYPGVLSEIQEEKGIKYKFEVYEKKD

T2: Bifunctional dihydrofolate reductase-thymidylate synthase (Toxoplasma gondii, UniProt Q07422)
T2 sequence (Q07422 whole entry): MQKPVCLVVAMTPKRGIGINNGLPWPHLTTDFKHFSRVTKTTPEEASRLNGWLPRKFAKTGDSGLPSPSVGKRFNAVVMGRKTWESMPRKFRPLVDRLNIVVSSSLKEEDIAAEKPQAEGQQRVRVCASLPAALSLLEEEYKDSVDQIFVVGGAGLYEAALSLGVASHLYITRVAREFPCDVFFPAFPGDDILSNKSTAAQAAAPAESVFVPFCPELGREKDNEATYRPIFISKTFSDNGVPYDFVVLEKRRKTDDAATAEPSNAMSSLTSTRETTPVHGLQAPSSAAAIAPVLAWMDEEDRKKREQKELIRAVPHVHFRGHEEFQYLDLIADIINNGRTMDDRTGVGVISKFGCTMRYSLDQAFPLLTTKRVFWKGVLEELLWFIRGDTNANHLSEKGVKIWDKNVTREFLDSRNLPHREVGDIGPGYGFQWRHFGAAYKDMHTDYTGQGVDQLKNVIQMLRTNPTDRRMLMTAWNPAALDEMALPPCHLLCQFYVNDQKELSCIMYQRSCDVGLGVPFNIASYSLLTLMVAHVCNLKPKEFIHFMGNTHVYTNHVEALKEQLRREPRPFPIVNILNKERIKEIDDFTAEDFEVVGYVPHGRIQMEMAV

T3: Dihydrofolate reductase (Mycobacterium avium, UniProt O30463)
T3 sequence (O30463 whole entry): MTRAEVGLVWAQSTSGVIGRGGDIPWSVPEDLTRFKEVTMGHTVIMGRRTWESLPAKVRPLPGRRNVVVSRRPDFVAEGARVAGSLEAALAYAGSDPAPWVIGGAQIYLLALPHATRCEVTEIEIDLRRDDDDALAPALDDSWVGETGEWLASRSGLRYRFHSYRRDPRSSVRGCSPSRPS

T4: Dihydrofolate reductase (Pneumocystis carinii, UniProt P16184)
T4 sequence (P16184 whole entry): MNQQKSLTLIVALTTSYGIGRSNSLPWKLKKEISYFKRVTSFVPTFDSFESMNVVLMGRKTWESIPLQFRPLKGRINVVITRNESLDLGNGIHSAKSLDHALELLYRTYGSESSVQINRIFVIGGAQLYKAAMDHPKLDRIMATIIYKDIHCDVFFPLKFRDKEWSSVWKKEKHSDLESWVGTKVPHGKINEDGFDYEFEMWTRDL

T5: Folylpolyglutamate synthase, mitochondrial (Homo sapiens) (UniProt Q05932)
T5 sequence (whole entry): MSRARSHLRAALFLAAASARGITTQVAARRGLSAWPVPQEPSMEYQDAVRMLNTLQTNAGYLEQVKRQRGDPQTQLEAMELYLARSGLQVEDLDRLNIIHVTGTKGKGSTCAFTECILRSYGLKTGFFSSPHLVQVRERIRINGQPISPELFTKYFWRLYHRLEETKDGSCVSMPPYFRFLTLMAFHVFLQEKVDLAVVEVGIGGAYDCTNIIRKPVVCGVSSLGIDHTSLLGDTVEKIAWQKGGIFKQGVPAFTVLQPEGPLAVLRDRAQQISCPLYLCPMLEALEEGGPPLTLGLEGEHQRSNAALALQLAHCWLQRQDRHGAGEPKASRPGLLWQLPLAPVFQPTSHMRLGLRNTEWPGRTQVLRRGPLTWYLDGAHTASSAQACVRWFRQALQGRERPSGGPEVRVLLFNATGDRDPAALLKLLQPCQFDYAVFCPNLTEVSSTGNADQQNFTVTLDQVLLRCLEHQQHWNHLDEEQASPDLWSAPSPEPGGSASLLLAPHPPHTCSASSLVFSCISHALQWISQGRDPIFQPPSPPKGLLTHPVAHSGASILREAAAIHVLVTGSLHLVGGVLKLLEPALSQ

B1: Folylpolyglutamate synthase, mitochondrial (Homo sapiens), Q05932 (protein)
chain: MSRARSHLRAALFLAAASARGITTQVAARRGLSAWPVPQEPSMEYQDAVRMLNTLQTNAGYLEQVKRQRGDPQTQLEAMELYLARSGLQVEDLDRLNIIHVTGTKGKGSTCAFTECILRSYGLKTGFFSSPHLVQVRERIRINGQPISPELFTKYFWRLYHRLEETKDGSCVSMPPYFRFLTLMAFHVFLQEKVDLAVVEVGIGGAYDCTNIIRKPVVCGVSSLGIDHTSLLGDTVEKIAWQKGGIFKQGVPAFTVLQPEGPLAVLRDRAQQISCPLYLCPMLEALEEGGPPLTLGLEGEHQRSNAALALQLAHCWLQRQDRHGAGEPKASRPGLLWQLPLAPVFQPTSHMRLGLRNTEWPGRTQVLRRGPLTWYLDGAHTASSAQACVRWFRQALQGRERPSGGPEVRVLLFNATGDRDPAALLKLLQPCQFDYAVFCPNLTEVSSTGNADQQNFTVTLDQVLLRCLEHQQHWNHLDEEQASPDLWSAPSPEPGGSASLLLAPHPPHTCSASSLVFSCISHALQWISQGRDPIFQPPSPPKGLLTHPVAHSGASILREAAAIHVLVTGSLHLVGGVLKLLEPALSQ

Tests used:
[1] = Selectivity for dihydrofolate reductase enzyme in rat liver Toxoplasma gondii
[2] = Selectivity for dihydrofolate reductase enzyme in rat liver and Pneumocystis carinii
Homo sapiens = species on record: Homo sapiens; assay: Growth inhibition was measured for inhibition of growth in FaDu human squamous cell carcinoma of the head and neck.; type: functional
Dihydrofolate reductase [3] = biological target: T1, Dihydrofolate reductase
Description: Inhibition of Dihydrofolate reductase of rat liver

[4] = biological target: T2, Bifunctional dihydrofolate reductase-thymidylate synthase
Description: Inhibition of Toxoplasma gondii Dihydrofolate reductase

Dihydrofolate reductase [5] = biological target: T3, Dihydrofolate reductase; assay: Inhibitory concentration was evaluated against […] Dihydrofolate reductase enzyme in Mycobacterium avium.
Dihydrofolate reductase [6] = biological target: T4, Dihydrofolate reductase
Description: Inhibition of Pneumocystis carinii dihydrofolate reductase

[7] = biological target: T5, Folylpolyglutamate synthase, mitochondrial (Homo sapiens); assay: Activity of substrate for human FPGS was evaluated and compared to that of aminopterin (AMT)
CCRF-CEM [8] = assay: Growth inhibition was measured for inhibition of growth in CCRF-CEM subline resistant to MTX solely as a result of a 20-fold increase in wild-type DHFR protein and activity.; type: functional, cell-based; conditions: Homo sapiens
CCRF-CEM [9] = assay: Growth inhibition was measured for inhibition of growth in CCRF-CEM sublines resistant to MTX solely as a result of decreased polyglutamation.; type: functional, cell-based; conditions: Homo sapiens
CCRF-CEM [10] = assay: Growth inhibition was measured as for inhibition of growth in CCRF-CEM cells.; type: functional, cell-based; conditions: Homo sapiens
[11] = substrate: Nc1nc(N)c2c3c(oc2n1)CN(Cc1ccc(C(=O)N[C@@H](CCC(=O)O)C(=O)O)cc1)CC3; assay: Binding affinity was evaluated on CCRF-CEM human leukemia cell folyl-poly-glutamate synthetase.; type: cell-based

| Molecule | Selectivity ratio [1] | Selectivity ratio [2] | IC50 (Dihydrofolate reductase [3]) [µM] | IC50 [4] [µM] | IC50 (Dihydrofolate reductase [5]) [µM] | IC50 (Dihydrofolate reductase [6]) [µM] | other results |
| --- | --- | --- | --- | --- | --- | --- | --- |
| CN(Cc1coc2nc(N)nc(N)c12)c1ccc(C(=O)NC(CCC(=O)O)C(=O)O)cc1 (configuration not stated) | 0.021 | 12.2 |  |  |  |  |  |
| Nc1nc(N)c2c(CNc3ccc(C(=O)NC(CCC(=O)O)C(=O)O)cc3)coc2n1 (configuration not stated) | 1.9 | 1.4 |  |  |  |  |  |
| CN(Cc1cnc2nc(N)nc(N)c2n1)c1ccc(C(=O)N[C@@H](CCC(=O)O)C(=O)O)cc1 [METHOTREXATE] |  |  |  |  |  |  | EC50 (Homo sapiens): 0.0172 µM |
| Nc1nc(N)c2c3c(oc2n1)CN(Cc1ccc(Cl)c(Cl)c1)CC3 |  | 0.9 | 20.6 | 22.3 | > 20 | 24.1 |  |
| Nc1nc(N)c2nc(CNc3ccc(C(=O)N[C@@H](CCC(=O)O)C(=O)O)cc3)cnc2n1 |  |  |  |  |  |  | Relative Vmax [7]: 1 |
| Nc1nc(N)c2c3c(oc2n1)CN(Cc1c(Cl)cccc1Cl)CC3 | 2.5 | 2 | 81.2 | 31.7 | > 81.2 | 40.5 |  |
| COc1cc(CN2CCc3c(oc4nc(N)nc(N)c34)C2)cc(OC)c1OC |  |  | > 35 | > 35 | 12.1 | > 35 |  |
| Nc1nc(N)c2c3c(oc2n1)CN(Cc1ccccc1)CC3 | > 10 |  | 15 | 1.4 | > 15 | > 9 |  |
| Nc1nc(N)c2c3c(oc2n1)CN(Cc1ccc(Cl)cc1Cl)CC3 | 3.9 | 2.3 | 50.9 | 13.1 | > 50 | 22.6 |  |
| COc1cc(CN2CCc3c(oc4nc(N)nc(N)c34)C2)cc(OC)c1 |  |  | 22.8 | > 20.4 | > 20 | > 22.8 |  |
| Nc1nc(N)c2c3c(oc2n1)CN(Cc1ccc(C(=O)N[C@@H](CCC(=O)O)C(=O)O)cc1)CC3 | 4 | 7.9 | 85.8 | 21.5 | 0.97 |  | EC50 (Homo sapiens): > 100 µM; EC50 (CCRF-CEM [8]): 10.3 µM; EC50 (CCRF-CEM [9]): > 50 µM; Relative Vmax [7]: 0.29; EC50 (CCRF-CEM [10]): 3.6 µM |
| B1 |  |  |  |  |  |  | Km [11]: 6.2 µM |
